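Each compound was tested at five concentrations against cells in 96-well plates for 48 hours. GI50 marks 50% less growth.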 Activity calls are given as the source filed them. Cut-off read from the data, not from the text of the source: active = GI50 up to about 1.1 µM and inactive = higher.
Assays:
Test in all cases: NCI-60 cell line screen, 48 h
ACHN = test system: ACHN
COLO 205 = test system: COLO 205
HOP-62 = test system: HOP-62
SF-295 = test system: SF-295
SK-OV-3 = test system: SK-OV-3
SNB-19 = test system: SNB-19
HCC 2998 = test system: HCC 2998
OVCAR-4 = test system: OVCAR-4
SN12C = test system: SN12C
SF-268 = test system: SF-268
T47D = test system: T47D
SR = test system: SR
TK-10 = test system: TK-10
NCI/ADR-RES = test system: NCI/ADR-RES
SF-539 = test system: SF-539
UACC-257 = test system: UACC-257
Hs-578T = test system: Hs-578T
SNB-75 = test system: SNB-75
HL-60 = test system: HL-60
UO-31 = test system: UO-31

Row | SMILES | GI50 (ACHN) | GI50 (COLO 205) | GI50 (HOP-62) | GI50 (SF-295) | GI50 (SK-OV-3) | GI50 (SNB-19) | GI50 (HCC 2998) | GI50 (OVCAR-4) | GI50 (SN12C) | GI50 (SF-268) | GI50 (T47D) | GI50 (SR) | GI50 (TK-10) | GI50 (NCI/ADR-RES) | GI50 (SF-539) | GI50 (UACC-257) | GI50 (Hs-578T) | GI50 (SNB-75) | GI50 (HL-60) | GI50 (UO-31)
1 | CCN(CC)CCC(=O)c1ccc(Oc2ccccc2)cc1 | 15.8 µM (inactive) | 17.7 µM (inactive) | 27.5 µM (inactive) | 55.3 µM (inactive) | > 100 µM (inactive) | 18.9 µM (inactive) | 17.6 µM (inactive) | 23.9 µM (inactive) | 17.6 µM (inactive) | 20.8 µM (inactive) | 19 µM (inactive) | 39.4 µM (inactive) | 14.2 µM (inactive) | 21.9 µM (inactive) | 18.6 µM (inactive) | 17.2 µM (inactive) | 18.2 µM (inactive) | 19.5 µM (inactive) | – | –
2 | NCCCC(N)C(=O)O (stereo not drawn) | > 100 µM (inactive) | > 100 µM (inactive) | > 100 µM (inactive) | > 100 µM (inactive) | > 100 µM (inactive) | > 100 µM (inactive) | – | > 100 µM (inactive) | > 100 µM (inactive) | > 100 µM (inactive) | > 100 µM (inactive) | > 100 µM (inactive) | > 100 µM (inactive) | > 100 µM (inactive) | – | > 100 µM (inactive) | > 100 µM (inactive) | > 100 µM (inactive) | > 100 µM (inactive) | > 100 µM (inactive)
3 | CC1OC1P(=O)(O)O (stereo not drawn) | > 100 µM (inactive) | > 100 µM (inactive) | > 100 µM (inactive) | > 100 µM (inactive) | > 100 µM (inactive) | > 100 µM (inactive) | > 100 µM (inactive) | > 100 µM (inactive) | > 100 µM (inactive) | > 100 µM (inactive) | > 100 µM (inactive) | > 100 µM (inactive) | > 100 µM (inactive) | – | – | > 100 µM (inactive) | > 100 µM (inactive) | > 100 µM (inactive) | – | > 100 µM (inactive)
4 | COC(=O)C1CC(C=[N+](C)C)=C(SC)N1C(=O)OCc1ccccc1 (stereo not drawn) | > 100 µM (inactive) | > 100 µM (inactive) | > 100 µM (inactive) | > 100 µM (inactive) | > 100 µM (inactive) | > 100 µM (inactive) | > 100 µM (inactive) | > 100 µM (inactive) | – | > 100 µM (inactive) | > 100 µM (inactive) | > 100 µM (inactive) | > 100 µM (inactive) | > 100 µM (inactive) | – | > 100 µM (inactive) | > 100 µM (inactive) | > 100 µM (inactive) | – | > 100 µM (inactive)
5 | Nc1nc2cc(CNc3ccc(C(=O)NC(CCC(=O)O)C(=O)O)cc3)ccc2nc1-c1ccccc1 (stereo not drawn) | > 10 µM (inactive) | > 10 µM (inactive) | > 10 µM (inactive) | > 10 µM (inactive) | > 10 µM (inactive) | > 10 µM (inactive) | > 10 µM (inactive) | > 10 µM (inactive) | > 10 µM (inactive) | > 10 µM (inactive) | > 10 µM (inactive) | – | > 10 µM (inactive) | > 10 µM (inactive) | > 10 µM (inactive) | > 10 µM (inactive) | > 10 µM (inactive) | > 10 µM (inactive) | > 10 µM (inactive) | > 10 µM (inactive)
6 | C=C1C(=O)O[C@H]2/C=C(/C)C3=CC(=O)[C@@](C)(C[C@@H](OC(=O)/C(C)=C\C)C12)O3 (stereo partly drawn) | 0.232 µM (active) | 0.284 µM (active) | 9.4 µM (inactive) | 12 µM (inactive) | 12.2 µM (inactive) | – | 1.59 µM (inactive) | 3.95 µM (inactive) | 1.36 µM (inactive) | 1.88 µM (inactive) | 0.811 µM (active) | 0.083 µM (active) | – | – | 1.93 µM (inactive) | 1.73 µM (inactive) | 6.05 µM (inactive) | 8.69 µM (inactive) | < 0.0451 µM (active) | 1.21 µM (inactive)
7 | CCC1c2[nH]c3ccccc3c2C[C@H]2C(=O)NC(Cc3c[nH]c4ccccc34)C(=O)N12 (stereo partly drawn) | 29.4 µM (inactive) | 18.8 µM (inactive) | 24 µM (inactive) | 17.3 µM (inactive) | 34 µM (inactive) | 37.5 µM (inactive) | – | 29.9 µM (inactive) | 22.5 µM (inactive) | 29.7 µM (inactive) | 26.4 µM (inactive) | 16.9 µM (inactive) | 23.2 µM (inactive) | 27.9 µM (inactive) | – | 19.4 µM (inactive) | 22.6 µM (inactive) | – | 19.2 µM (inactive) | 27.7 µM (inactive)
8 | Cc1cc(N(CCC#N)CCC#N)ccc1C(/N=N\c1ccc([N+](=O)[O-])cc1)=N\NC(=O)c1cc(Cl)ccc1O | 27.8 µM (inactive) | 25 µM (inactive) | 26.2 µM (inactive) | 29.1 µM (inactive) | 50.7 µM (inactive) | 34.7 µM (inactive) | 16.4 µM (inactive) | 26.5 µM (inactive) | 22.6 µM (inactive) | 19.9 µM (inactive) | 25.9 µM (inactive) | 24.3 µM (inactive) | 46.1 µM (inactive) | 28.7 µM (inactive) | 40.4 µM (inactive) | 34 µM (inactive) | 15.7 µM (inactive) | > 100 µM (inactive) | – | 13.8 µM (inactive)
9 | Cc1cc2c(cc1C(=O)c1ccc(N)cc1)OCO2 | > 100 µM (inactive) | 16 µM (inactive) | 58.7 µM (inactive) | 21.9 µM (inactive) | 24.5 µM (inactive) | 57.7 µM (inactive) | – | – | 49.5 µM (inactive) | 31.2 µM (inactive) | 28 µM (inactive) | 5.08 µM (inactive) | 28.2 µM (inactive) | 25.1 µM (inactive) | 27.2 µM (inactive) | > 100 µM (inactive) | 48 µM (inactive) | – | 49.9 µM (inactive) | 77.8 µM (inactive)
10 | CC(C(O)c1ccccc1)N(C)/N=N/c1nc2c([nH]1)c(=O)n(C)c(=O)n2C (stereo not drawn) | 36.6 µM (inactive) | 41.4 µM (inactive) | > 100 µM (inactive) | > 100 µM (inactive) | > 100 µM (inactive) | > 100 µM (inactive) | 39.9 µM (inactive) | > 100 µM (inactive) | 52.6 µM (inactive) | > 100 µM (inactive) | 85.5 µM (inactive) | – | 64.1 µM (inactive) | > 100 µM (inactive) | – | > 100 µM (inactive) | > 100 µM (inactive) | > 100 µM (inactive) | > 100 µM (inactive) | > 100 µM (inactive)
11 | COc1cc2c(cc1O)CC[n+]1cc3c(OC)c(OC)ccc3cc1-2 | > 100 µM (inactive) | 72.4 µM (inactive) | – | > 100 µM (inactive) | > 100 µM (inactive) | 60.1 µM (inactive) | > 100 µM (inactive) | > 100 µM (inactive) | > 100 µM (inactive) | > 100 µM (inactive) | 94.4 µM (inactive) | – | > 100 µM (inactive) | > 100 µM (inactive) | > 100 µM (inactive) | 90.4 µM (inactive) | > 100 µM (inactive) | > 100 µM (inactive) | > 100 µM (inactive) | > 100 µM (inactive)
12 | CCOC(=O)C1C(C)C2(C#N)C(=N)OC1(C)C2(C#N)C#N (stereo not drawn) | 38.6 µM (inactive) | > 100 µM (inactive) | – | > 100 µM (inactive) | > 100 µM (inactive) | 79.3 µM (inactive) | > 10 µM (inactive) | – | 64.9 µM (inactive) | 57.9 µM (inactive) | 48.1 µM (inactive) | – | 77.6 µM (inactive) | > 100 µM (inactive) | 47.2 µM (inactive) | 42.1 µM (inactive) | 40.9 µM (inactive) | 27.6 µM (inactive) | 21.8 µM (inactive) | 76.9 µM (inactive)
13 | Cn1c(C(C)(C)OC(=O)Oc2ccccc2)cnc1[N+](=O)[O-] | > 100 µM (inactive) | 71.1 µM (inactive) | > 100 µM (inactive) | > 100 µM (inactive) | > 100 µM (inactive) | > 100 µM (inactive) | – | 38.7 µM (inactive) | 19.7 µM (inactive) | > 100 µM (inactive) | > 100 µM (inactive) | 16.8 µM (inactive) | > 100 µM (inactive) | > 100 µM (inactive) | > 100 µM (inactive) | 36 µM (inactive) | > 100 µM (inactive) | > 100 µM (inactive) | 36.5 µM (inactive) | > 100 µM (inactive)
14 | CC(=O)NS(=O)(=O)c1ccc(NCc2cccc3c(=O)c4ccc(Cl)cc4oc23)cc1 | 38.5 µM (inactive) | > 57.7 µM (inactive) | 39.1 µM (inactive) | 51.4 µM (inactive) | > 53.8 µM (inactive) | 57.3 µM (inactive) | 38.5 µM (inactive) | > 54.5 µM (inactive) | > 65.6 µM (inactive) | 30.8 µM (inactive) | > 92.3 µM (inactive) | – | > 63.4 µM (inactive) | 31.6 µM (inactive) | 17.1 µM (inactive) | > 56.6 µM (inactive) | 25.4 µM (inactive) | 64 µM (inactive) | 1.44 µM (inactive) | 25.4 µM (inactive)
15 | CC(=O)OCCCCn1nncc1Cn1ccc(=O)n(Cc2cnnn2CCCCOC(C)=O)c1=O | > 100 µM (inactive) | > 100 µM (inactive) | > 100 µM (inactive) | > 100 µM (inactive) | > 100 µM (inactive) | > 100 µM (inactive) | > 100 µM (inactive) | > 100 µM (inactive) | > 100 µM (inactive) | > 100 µM (inactive) | > 100 µM (inactive) | – | > 100 µM (inactive) | > 100 µM (inactive) | > 100 µM (inactive) | > 100 µM (inactive) | > 100 µM (inactive) | > 100 µM (inactive) | – | > 100 µM (inactive)

— ChEMBL document CHEMBL1201862, “PubChem BioAssay data set” (2004)
